Results as given in PMC12615753, “Glutathione as a taste modulator: molecular mechanisms of interaction with umami and sweet taste receptors” (Food Chemistry: Molecular Sciences, 2025).

What was measured:
hTAS1R2/rTAS1R3(Mut1) = target: T1, hTAS1R2/rTAS1R3(Mut1) (UniProt Q8TE23+Q923K1, A277V/L68N/R278H/S168G/S302A); assay: Calcium assay, mutated rTAS1R3 co-expressed with hTAS1R2; assay type: cell-based, human, rat
T1 construct: The cDNA coding region of rTAS1R3 was synthesized with optimized-codon usage for human expression; expressed in transfected cells
T1 sequence (Q8TE23 20-839, stated change not applied): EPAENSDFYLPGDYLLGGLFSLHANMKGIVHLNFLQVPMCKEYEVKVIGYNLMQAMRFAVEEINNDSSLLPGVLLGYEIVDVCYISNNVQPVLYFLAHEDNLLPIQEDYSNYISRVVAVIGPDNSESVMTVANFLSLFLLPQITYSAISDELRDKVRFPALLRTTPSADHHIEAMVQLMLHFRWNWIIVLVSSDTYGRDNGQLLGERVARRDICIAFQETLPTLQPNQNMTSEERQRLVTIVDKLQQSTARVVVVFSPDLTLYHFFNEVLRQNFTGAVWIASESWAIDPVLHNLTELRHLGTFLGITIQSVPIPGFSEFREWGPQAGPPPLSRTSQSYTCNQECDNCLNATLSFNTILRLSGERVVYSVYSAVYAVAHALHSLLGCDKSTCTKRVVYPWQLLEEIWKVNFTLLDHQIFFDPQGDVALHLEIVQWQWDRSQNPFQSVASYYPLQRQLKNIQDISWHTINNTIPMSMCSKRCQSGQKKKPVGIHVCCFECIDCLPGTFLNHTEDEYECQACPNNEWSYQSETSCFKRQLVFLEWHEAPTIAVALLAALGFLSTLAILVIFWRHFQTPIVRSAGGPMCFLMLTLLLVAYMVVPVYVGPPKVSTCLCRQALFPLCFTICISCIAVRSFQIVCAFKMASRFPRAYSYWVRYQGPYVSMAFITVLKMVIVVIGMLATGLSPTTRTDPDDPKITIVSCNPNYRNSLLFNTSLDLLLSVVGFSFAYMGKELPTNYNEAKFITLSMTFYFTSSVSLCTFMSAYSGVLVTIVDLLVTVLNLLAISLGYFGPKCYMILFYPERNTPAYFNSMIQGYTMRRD
T1 sequence (Q923K1 21-858 L68N/S168G/A277V/R278H/S302A): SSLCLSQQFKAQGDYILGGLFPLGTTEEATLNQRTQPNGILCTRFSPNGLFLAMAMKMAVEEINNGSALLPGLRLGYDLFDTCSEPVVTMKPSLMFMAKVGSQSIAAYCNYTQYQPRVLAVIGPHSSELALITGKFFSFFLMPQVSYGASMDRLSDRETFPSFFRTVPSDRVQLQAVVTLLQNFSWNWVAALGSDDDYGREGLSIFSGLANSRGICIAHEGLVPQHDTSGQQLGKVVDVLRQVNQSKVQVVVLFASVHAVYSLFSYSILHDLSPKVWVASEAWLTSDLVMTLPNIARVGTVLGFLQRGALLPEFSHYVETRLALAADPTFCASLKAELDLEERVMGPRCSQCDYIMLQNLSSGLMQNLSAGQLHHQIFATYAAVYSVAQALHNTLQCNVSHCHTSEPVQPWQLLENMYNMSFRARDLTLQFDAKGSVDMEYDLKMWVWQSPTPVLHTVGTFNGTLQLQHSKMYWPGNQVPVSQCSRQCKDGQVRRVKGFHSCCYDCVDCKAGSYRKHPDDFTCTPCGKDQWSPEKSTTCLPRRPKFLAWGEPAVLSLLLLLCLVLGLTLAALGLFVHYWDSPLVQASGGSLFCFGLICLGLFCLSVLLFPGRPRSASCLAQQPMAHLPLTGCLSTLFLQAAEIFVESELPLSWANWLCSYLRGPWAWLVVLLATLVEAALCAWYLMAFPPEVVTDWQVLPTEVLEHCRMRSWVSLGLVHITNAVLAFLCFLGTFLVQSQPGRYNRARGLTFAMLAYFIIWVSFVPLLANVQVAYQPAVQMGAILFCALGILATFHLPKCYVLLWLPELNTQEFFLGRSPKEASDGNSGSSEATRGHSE
Description: HEK293T/17 cells (ATCC CRL-11268) were seeded into clear bottom black 96-well plates coated with poly-D-lysine at a density of 32500 cells/well in 100 μL of DMEM containing 4.5 g/L glucose and supplemented with penicillin/streptomycin, 2 mM GlutaMAX and 10 % dialyzed fetal bovine serum. The plates were incubated for 24 h at 37 °C and 7.3 % CO2 in a humidified atmosphere. After incubation, using Fugene® 4 K (0.46 μL/well, Promega, Illkirch, France), the cells were transiently transfected with pcDNA3-hTAS1R1-WT (60 ng/well) or TAS1R1 mutants, pcDNA4-rTAS1R3 (60 ng/well), pcDNA3-Gα15i2 (10 ng/well), and pGP-CMV-GCaMP6s (Addgene #40753; 10 ng/well) as a genetically encoded calcium indicator. […] After 20 s of basal fluorescence calcium measurement, the cells were stimulated via automatic injection of a range of compounds in eight wells, and the signal emission was recorded for an additional 70 s, via a FlexStation 3® fluorometric microplate reader (Molecular Devices, San Jose, CA, USA). […] The emitted fluorescence was measured at a wavelength of 510 nm after excitation at 488 nm. […] For each well, the decrease in the raw fluorescence as the relative fluorescence changed was calculated as ΔF/F0. Replicates were averaged for the wells subjected to the same stimuli, the background signal was subtracted, and the fluorescence changes in mock-transfected cells were subtracted. […]

hTAS1R1 R151A/rTAS1R3 = target: T2, hTAS1R1 R151A/rTAS1R3 (Homo sapiens, UniProt Q7RTX1, R151A); assay: Calcium assay, hTAS1R1 mutant co-expressed with rTAS1R3; assay type: cell-based, rat
T2 construct: UniProtKB number Q7RTX1–1); expressed in transfected cells; host or cells: HEK293T/17 (ATCC CRL-11268)
T2 sequence (Q7RTX1 21-841 R151A): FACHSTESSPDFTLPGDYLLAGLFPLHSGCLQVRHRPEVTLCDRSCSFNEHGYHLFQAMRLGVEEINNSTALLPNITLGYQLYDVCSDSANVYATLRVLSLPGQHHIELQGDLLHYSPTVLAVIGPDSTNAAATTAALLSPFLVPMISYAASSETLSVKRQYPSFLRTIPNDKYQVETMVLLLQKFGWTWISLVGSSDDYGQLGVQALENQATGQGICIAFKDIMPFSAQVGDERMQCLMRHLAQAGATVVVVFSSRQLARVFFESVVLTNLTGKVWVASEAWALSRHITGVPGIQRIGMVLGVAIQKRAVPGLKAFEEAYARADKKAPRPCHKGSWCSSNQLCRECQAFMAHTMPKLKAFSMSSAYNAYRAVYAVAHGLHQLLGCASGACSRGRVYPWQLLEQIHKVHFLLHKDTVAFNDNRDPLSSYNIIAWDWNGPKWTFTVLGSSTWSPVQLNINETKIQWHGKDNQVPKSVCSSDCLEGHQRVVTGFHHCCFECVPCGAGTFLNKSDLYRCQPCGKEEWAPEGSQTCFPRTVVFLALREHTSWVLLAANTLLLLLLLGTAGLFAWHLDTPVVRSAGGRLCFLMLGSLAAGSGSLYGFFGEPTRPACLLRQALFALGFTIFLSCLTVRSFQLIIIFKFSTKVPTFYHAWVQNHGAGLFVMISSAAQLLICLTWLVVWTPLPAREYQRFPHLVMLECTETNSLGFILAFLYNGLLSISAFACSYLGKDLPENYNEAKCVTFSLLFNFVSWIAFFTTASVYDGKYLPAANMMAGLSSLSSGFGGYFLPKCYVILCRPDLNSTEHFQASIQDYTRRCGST
T2 sequence (Q923K1 21-858 partner): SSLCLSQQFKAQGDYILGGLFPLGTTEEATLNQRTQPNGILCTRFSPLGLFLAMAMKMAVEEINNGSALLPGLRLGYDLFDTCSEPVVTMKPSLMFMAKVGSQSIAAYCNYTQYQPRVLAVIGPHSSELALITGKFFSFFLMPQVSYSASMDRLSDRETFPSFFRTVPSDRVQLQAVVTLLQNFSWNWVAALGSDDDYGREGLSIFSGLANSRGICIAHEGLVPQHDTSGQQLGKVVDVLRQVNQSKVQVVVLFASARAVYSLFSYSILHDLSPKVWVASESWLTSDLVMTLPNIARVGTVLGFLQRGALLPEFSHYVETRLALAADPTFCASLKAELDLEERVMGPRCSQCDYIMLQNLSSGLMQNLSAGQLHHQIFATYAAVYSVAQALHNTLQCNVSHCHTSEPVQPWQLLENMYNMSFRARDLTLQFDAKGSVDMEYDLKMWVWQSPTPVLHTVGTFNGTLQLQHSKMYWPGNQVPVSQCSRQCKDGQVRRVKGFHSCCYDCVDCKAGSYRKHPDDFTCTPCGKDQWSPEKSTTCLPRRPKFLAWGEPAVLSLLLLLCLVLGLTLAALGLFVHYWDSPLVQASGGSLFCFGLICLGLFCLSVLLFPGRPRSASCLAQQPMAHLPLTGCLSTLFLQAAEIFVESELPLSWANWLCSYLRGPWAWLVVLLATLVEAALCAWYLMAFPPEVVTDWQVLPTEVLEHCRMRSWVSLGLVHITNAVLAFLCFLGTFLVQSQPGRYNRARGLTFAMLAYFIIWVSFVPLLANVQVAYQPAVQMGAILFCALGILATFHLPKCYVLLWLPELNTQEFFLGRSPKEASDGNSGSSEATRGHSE

OC[C@H]1O[C@H](O[C@]2(CCl)O[C@H](CCl)[C@@H](O)[C@@H]2O)[C@H](O)[C@@H](O)[C@H]1Cl [sucralose, reference compound]
EC50 (hTAS1R2/rTAS1R3(Mut1); sucralose alone, Fig. 4A): 283 ± 55 µM

CCCC(CCC)NC(=O)c1ccc2c(c1)OCO2 [S807, N-(heptan-4-yl)benzo[d][1,3]dioxole-5-carboxamide, reference compound]
response to the agonist alone, vs WT (hTAS1R1 R151A/rTAS1R3; R151A): strongly affected

N[C@@H](CCC(=O)N[C@@H](CS)C(=O)NCC(=O)O)C(=O)O [GSH, γ-L-glutamyl-L-cysteinyl-glycine]
EC50 (hTAS1R1 R151A/rTAS1R3): 2590 ± 1590 µM
effect of the added compound (1 mM) on the response to L-Glu (hTAS1R1 R151A/rTAS1R3; R151A): did not affect
Max ∆F/F0 (hTAS1R1 R151A/rTAS1R3; R151A, GSH): 0.31 ± 0.08
R1 = mutant EC50/WT EC50 (hTAS1R1 R151A/rTAS1R3; R151A, GSH): 1.0
effect of 10 mM GSH on the response to sucralose (hTAS1R2/rTAS1R3(Mut1)): not increased
